Source: the NIST ThermoML archive (doi:10.1021/acs.jced.8b01053)
± gives the expanded uncertainty stated by the source.

Details: Liquid, Ebulliometric method (Recirculating still)

vapor or sublimation pressure (391.07 K)	vapor or sublimation pressure (413.46 K)	vapor or sublimation pressure (330.01 K)	vapor or sublimation pressure (349.53 K)	SMILES
50 ± 1 kPa	100 ± 1 kPa			CC(=O)OCCC(C)C [3-methylbutyl ethanoate]
		50 ± 1 kPa	100 ± 1 kPa	CCOC(C)=O [ethyl acetate]
